Experimental data from article PMC8776337, “Peptides Derived from Vascular Endothelial Growth Factor B Show Potent Binding to Neuropilin‐1” (Chembiochem, 2021).
Like-named read-outs stand apart in the source and are kept apart here. Positions of bridges follow the written chain, without caps; N, C: chain ends. Residues, ends and D or L forms follow the SMILES beside them. *: point of attachment. Palmitoyl = CCCCCCCCCCCCCCCC(=O)*; Hept6ynoyl = C#CCCCCC(=O)*

How the values were obtained:
NRP1‐b1 = molecular target: T1, NRP1‐b1 (Homo sapiens, UniProt O14786); assay: SPR binding of peptides to immobilised NRP1-b1; details: for Receptor occupancy: immobilised NRP1-b1
T1 construct: the immobilized b1 domain of NRP1 (NRP1‐b1); poly-histidine (TEV-cleavable) (cleaved yes); made in house; host or cells: E. coli Rosetta (DE3)
T1 sequence (O14786 275-424 limits assumed): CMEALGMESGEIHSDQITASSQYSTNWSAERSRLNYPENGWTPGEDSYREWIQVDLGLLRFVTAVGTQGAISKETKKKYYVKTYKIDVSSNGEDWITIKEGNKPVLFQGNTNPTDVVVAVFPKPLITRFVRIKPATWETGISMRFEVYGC
Description: We then designed four additional peptides with added lipid chains (Figures 3 and 4). We investigated the effect of lipidation on the N‐terminus (MGC0171 and MGC0174) and on the side chain of a lysine in close proximity to the C‐terminus (MGC0172 and MGC0173) as shown (Figure 5). For the SPR analysis of the lipidated peptides we fitted data to a two‐state reaction model to account for the nonspecific binding of the palmitoyl side chains. Since the model assumes two binding events it provides two association (k a) and dissociation (k d) rates, and the overall equilibrium dissociation constant is calculated using the equation: KD=KD1(1+KD2), in which KD1 and KD2 are obtained as […]. The inverse of the dissociation rate corresponds to the residence time. […] The lipidated peptides were also tested for inhibition of VEGF‐A165 binding to NRP1 in a cell‐based assay (Figure 8).
Surface plasmon resonance: SPR measurements were performed using either Biacore T200 or Biacore 4000 at a constant temperature of 25 °C. All sensor chips, stock buffers, and immobilisation reagents were purchased from GE Healthcare/Cytvia and were prepared according to the manufacturer's instructions.
Chip preparation: PBS containing 0.05 % surfactant P20 was used as the running buffer during immobilisation. Proteins were immobilised onto a CM5 chip using random amine coupling following a standard procedure using the conditions specified in Table 2. A flow cell upstream of the treated flow cell was used as a reference which allowed removal of non‐specific binding to the chip.
Kinetic measurements of peptides: Peptides were injected over immobilized NRP1‐b1 for 60 s, followed by 120 or 180 s dissociation. The surface was regenerated with 1 M NaCl between injections. The SPR response curves were fit to a binding model to obtain association (ka ) and dissociation (kd ) rates which were then converted into equilibrium dissociation constant (KD ) and residence time. For a 1 : 1 binding model […] and for a two‐state binding model KD=K1(1+K2). Residence time was calculated as 1/kd .

[1] = system: VEGF‐A165 stimulated phosphorylation in HUVECs; assay: Western blot of VEGF-A-stimulated phosphorylation of downstream signalling proteins in HUVECs; assay type: cell-based, human; details: HUVECs pre-treated 30 min with 10 μM peptide, then VEGF-A165 10 min
Procedure: Figure 7 Effect of VEGF ‐ derived peptides on VEGF‐A ‐stimulated phosphorylation of downstream signalling proteins as probed by Western blot. A) VEGF‐B167 derived peptide MGC0123. B) VEGF‐A165 derived peptide MGC0124. HUVECs were pre‐treated for 30 min with peptide (10 μM) then stimulated for 10 minutes with VEGF‐A165.
Cell culture: Human umbilical vein endothelial cells (HUVECs) were cultured in t75 cm2 flasks for a maximum of 2 passages in EGM Endothelial Cell Growth Medium (#CC‐3124, Lonza, USA) supplemented with 10 % FBS. Cells were split into 6‐well‐plates and allowed to grow to ∼80 % confluence. Cells were starved by incubating in 0.5 % FBS serum EGM overnight and serum‐free EGM for 1 h directly before stimulation. Human DU145 cells for the cell‐based assay (see below) were cultured in t75 cm2 flasks in DMEM supplemented with 10 % FBS.
Immunoblotting: Cells were pre‐treated with the indicated peptide (10 μM) for 30 minutes prior to treatment with VEGF‐A165 at the indicated concentrations for 10 minutes. Cells were lysed in a solution containing Tris⋅HCl (pH 7.5, 50 mm), Triton X‐100 (1 %), NaCl (150 mm), EDTA (5 mm), complete protease inhibitor (Roche) and phosphatase inhibitors I and II (Sigma) and analysed by SDS‐PAGE with 4–12 % Bis⋅Tris gels (Nupage, Invitrogen), followed by electrotransfer onto Invitrolon PVDF membranes (Invitrogen). Membranes were blocked with non‐fat dry milk (5 % w/v) and Tween‐20 (0.1 % v/v) in tris‐buffered saline (TBS‐T), for 1 h at room temperature, before being probed with the primary antibody by overnight incubation at 4 degrees C, followed by incubation for 1 h at room temperature with a horseradish‐ peroxidase‐linked secondary antibody (Santa Cruz) and detection with the aid of ECL plus reagents (GE Healthcare, Little Chalfont, UK), by the manufacturer's protocol.

[2] = molecular target: T2, bt‐VEGF‐A165 binding to NRP1 in HUVEC cells (Homo sapiens, UniProt O14786); assay: Cell based binding assay, inhibition of bt-VEGF-A165 binding to NRP1; details: bt-VEGF-A165 4 nM
T2 construct: expressed in transfected cells
Procedure: A) N‐terminal palmitoyl VEGF‐B167 derived peptide MGC0174. B) Lysine palmitoyl peptide MGC0173. C) N‐terminal palmitoyl VEGF‐A165 derived peptide MGC0171. D) Lysine VEGF‐A165 palmitoyl peptide MGC0172.
Cell based binding assay for bt‐VEGF binding to NRP1‐b1: A flat‐bottomed 96 well plate was coated with 100 μL 10 μg/mL Poly‐D‐lysine (110 μL in 10890 μL PBS) and incubated for 1 hour at R.T. DU145 cells were seeded at a concentration of 20,000 DU145 cells/well in DMEM with 10 % FBS and incubated for 4 hours. Cells were then infected with 0.3 μL per well of adenovirus expressing NRP1 (stock at 1×1012 vp/mL) and incubated for 40 hours. The media was removed followed by washing cells twice in 200 μL of PBS per well. The plate was placed on ice and 50 μL of binding medium was added per well for total binding. Next, 50 μL of 100‐fold excess (100×btVEGF‐A165) of unlabelled‐VEGF (diluted in binding medium) was added per well for non‐specific binding. Peptides (50 μL) at the indicated concentrations were diluted in binding medium and added to specified wells. bt‐VEGF (50 μL of 4 nM; diluted in binding medium) was added per well for both total and non‐specific binding and samples. The plate was incubated at 4 °C for 2 hours. The plate was then placed on ice and the medium was removed followed by gently washing the cells 3 times in 200 μL of PBS per well.
Streptavidin‐horseradish peroxidase (100 μL; dilute to the working concentration specified on the vial label using PBS+1 % BSA=1 : 200) was added to each well. The plate was sealed and incubated for 30 minutes at room temperature. Three more washes with 200 μL PBS were done. Then, 100 μL of substrate solution was added to each well (protected from light). Colour Reagent A and B were mixed together in equal volumes within 15 minutes of use. The plate was sealed and incubated for 20 minutes at room temperature. Stop solution (50 μL) was added to each well ensuring even mixing. The plate was read using Tecan Genios plate reader using a 450 nm cut‐off filter and also with a reference 595 nm cut‐off filter. Nonspecific binding was determined in the absence of NP‐1 coated on the microplate.

[3] = SPR, immobilised NRP1-b1, 25 °C, 1:1 model, or first residence time of the two-state model, read-out: Residence time (1/kd) (converted)

T2 sequence (O14786 22-923): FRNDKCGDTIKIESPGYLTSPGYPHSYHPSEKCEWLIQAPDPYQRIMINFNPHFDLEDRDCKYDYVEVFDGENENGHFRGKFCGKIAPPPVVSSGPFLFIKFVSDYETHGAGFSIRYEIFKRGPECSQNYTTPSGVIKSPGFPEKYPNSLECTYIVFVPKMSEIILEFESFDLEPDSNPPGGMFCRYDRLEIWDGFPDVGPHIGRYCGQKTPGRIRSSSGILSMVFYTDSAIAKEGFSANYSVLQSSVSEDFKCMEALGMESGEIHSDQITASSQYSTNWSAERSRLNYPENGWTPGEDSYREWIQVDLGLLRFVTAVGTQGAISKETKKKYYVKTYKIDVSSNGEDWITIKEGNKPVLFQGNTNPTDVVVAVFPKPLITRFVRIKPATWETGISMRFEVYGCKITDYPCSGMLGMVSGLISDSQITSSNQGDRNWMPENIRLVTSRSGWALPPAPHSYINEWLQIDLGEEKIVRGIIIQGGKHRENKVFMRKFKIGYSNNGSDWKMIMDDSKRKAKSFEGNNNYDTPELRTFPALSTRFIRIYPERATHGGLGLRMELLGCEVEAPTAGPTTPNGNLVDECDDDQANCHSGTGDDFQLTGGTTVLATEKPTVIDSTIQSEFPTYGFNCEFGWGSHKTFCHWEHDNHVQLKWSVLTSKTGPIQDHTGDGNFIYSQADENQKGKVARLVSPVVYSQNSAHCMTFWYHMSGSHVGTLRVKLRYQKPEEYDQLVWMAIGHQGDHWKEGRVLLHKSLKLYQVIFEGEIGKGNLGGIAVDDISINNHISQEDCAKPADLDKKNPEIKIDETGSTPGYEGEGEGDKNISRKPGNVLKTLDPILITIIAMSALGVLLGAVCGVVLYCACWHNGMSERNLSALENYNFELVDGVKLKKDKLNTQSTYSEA

residence time (NRP1‐b1; [3]) [min] | residence time (NRP1‐b1; SPR, immobilised NRP1-b1, 25 °C, two-state model, lipidated peptides, read-out: Second residence time calculated from two‐state model (converted)) [min] | Kd (NRP1‐b1; SPR, peptide injected 60 s over NRP1-b1 immobilised on CM5 chip, 25 °C, 1:1 model for MGC0122/0123/0124, two-state model for lipidated peptides, read-out: KD, SPR binding to NRP1‐b1) [nM] | IC50 ([2]; 4 °C, 2 h, streptavidin-horseradish peroxidase detection, read-out: IC50, cell‐based activity (HUVECs), inhibition of bt‐VEGF‐A165 binding to NRP1) [nM] | HS (of the inhibition curve of bt‐VEGF‐A165 binding to NRP1) ([2]; HUVEC cells) | Structure (SMILES) | VEGF‐A165 dependent ERK phosphorylation [1] | VEGF‐A165 dependent VEGFR2 phosphorylation [1] | VEGF‐A mediated P130Cas phosphorylation [1] | VEGF‐A mediated Paxillin phosphorylation [1] | Receptor occupancy (NRP1‐b1; SPR) [%] | residence time (NRP1‐b1; read-out: Residence time (1/kd)) [min]
0.0362 |  |  |  |  | C#CCCCCC(=O)N[C@@H](CC(=O)O)C(=O)N[C@@H](CCCNC(=N)N)C(=O)N[C@@H](C)C(=O)N[C@@H](C)C(=O)N[C@H](C(=O)N1CCC[C@H]1C(=O)N[C@@H](Cc1c[nH]cn1)C(=O)N[C@@H](Cc1c[nH]cn1)C(=O)N[C@@H](CCCNC(=N)N)C(=O)N1CCC[C@H]1C(=O)N[C@@H](CCC(N)=O)C(=O)N1CCC[C@H]1C(=O)N[C@@H](CCCNC(=N)N)C(=O)O)[C@@H](C)O [MGC0122] (Hept6ynoyl-DRAATPHHRPQPR-OH) |  |  |  |  |  | 
 |  |  |  |  | C#CCCCCC(=O)N[C@@H](CCCNC(=N)N)C(=O)N[C@H]1CSSC[C@@H]2NC(=O)[C@H]([C@@H](C)O)NC(=O)[C@H](CC(=O)O)NC(=O)[C@@H]3CCCN3C(=O)[C@H](CC(N)=O)NC(=O)[C@H](CC(C)C)NC(=O)[C@H](CCC(=O)O)NC(=O)[C@H](CC(C)C)NC(=O)CNC(=O)[C@H](CCCNC(=N)N)NC(=O)CNC(=O)[C@H](CCC(N)=O)NC(=O)[C@H](CSSC[C@@H](C(=O)N[C@@H](CCCNC(=N)N)C(=O)N[C@@H](CCCCN)C(=O)N[C@@H](CC(C)C)C(=O)N[C@@H](CCCNC(=N)N)C(=O)N[C@@H](CCCNC(=N)N)C(=O)O)NC(=O)[C@H](CCCNC(=N)N)NC2=O)NC(=O)[C@H](CCCNC(=N)N)NC(=O)[C@H](CC(C)C)NC(=O)[C@H](Cc2ccccc2)NC(=O)[C@H](CO)NC(=O)[C@H](CCCNC(=N)N)NC(=O)[C@H](CCCNC(=N)N)NC(=O)[C@H](CCCNC(=N)N)NC1=O [MGC0123] (Hept6ynoyl-RCRRRSFLRCQGRGLELNPDTCRCRKLRR-OH; disulfide 2-22, 10-24) | dramatically inhibited | dramatically inhibited | also inhibited | also inhibited | 54±3 | 0.308
0.0117 |  |  |  |  | C#CCCCCC(=O)N[C@@H](CO)C(=O)N[C@H]1CSSC[C@@H]2NC(=O)[C@H]([C@@H](C)O)NC(=O)[C@H](CCCNC(=N)N)NC(=O)[C@H](CCC(=O)O)NC(=O)[C@H](CC(N)=O)NC(=O)[C@H](CC(C)C)NC(=O)[C@H](CCC(=O)O)NC(=O)[C@H](CC(C)C)NC(=O)[C@H](CCC(N)=O)NC(=O)[C@H](CCCNC(=N)N)NC(=O)[C@H](C)NC(=O)[C@H](CCCCN)NC(=O)[C@H](CSSC[C@@H](C(=O)N[C@@H](CC(=O)O)C(=O)N[C@@H](CCCCN)C(=O)N3CCC[C@H]3C(=O)N[C@@H](CCCNC(=N)N)C(=O)N[C@@H](CCCNC(=N)N)C(=O)O)NC(=O)[C@H](CCCNC(=N)N)NC2=O)NC(=O)[C@H](CCCNC(=N)N)NC(=O)[C@H](CO)NC(=O)[C@H](CC(=O)O)NC(=O)[C@H]([C@@H](C)O)NC(=O)[C@H](CC(N)=O)NC(=O)[C@H](CCCCN)NC1=O [MGC0124] (Hept6ynoyl-SCKNTDSRCKARQLELNERTCRCDKPRR-OH; disulfide 2-21, 9-23) | little effect | strongly reducing | little effect | little effect | 84±1 | 
0.0883 | 1.58 | 3320 ± 160 | 1700 | 1.7 | CCCCCCCCCCCCCCCC(=O)N[C@@H](CO)C(=O)N[C@H]1CSSC[C@@H]2NC(=O)[C@H]([C@@H](C)O)NC(=O)[C@H](CCCNC(=N)N)NC(=O)[C@H](CCC(=O)O)NC(=O)[C@H](CC(N)=O)NC(=O)[C@H](CC(C)C)NC(=O)[C@H](CCC(=O)O)NC(=O)[C@H](CC(C)C)NC(=O)[C@H](CCC(N)=O)NC(=O)[C@H](CCCNC(=N)N)NC(=O)[C@H](C)NC(=O)[C@H](CCCCN)NC(=O)[C@H](CSSC[C@@H](C(=O)N[C@@H](CC(=O)O)C(=O)N[C@@H](CCCCN)C(=O)N3CCC[C@H]3C(=O)N[C@@H](CCCNC(=N)N)C(=O)N[C@@H](CCCNC(=N)N)C(=O)O)NC(=O)[C@H](CCCNC(=N)N)NC2=O)NC(=O)[C@H](CCCNC(=N)N)NC(=O)[C@H](CO)NC(=O)[C@H](CC(=O)O)NC(=O)[C@H]([C@@H](C)O)NC(=O)[C@H](CC(N)=O)NC(=O)[C@H](CCCCN)NC1=O [MGC0171] (Palmitoyl-SCKNTDSRCKARQLELNERTCRCDKPRR-OH; disulfide 2-21, 9-23) |  |  |  |  |  | 
